Test results from patent publication US6586441B2, “Adenosine receptor ligands and their use in the treatment of disease” (Hoffman-La Roche Inc., priority 2000, dated 2003).
pKi: −log10 of the molar value. Where a name gives a salt, the structure may show the parent alone.

The compounds below were run against T1, human adenosine A2A receptor (Homo sapiens, UniProt P29274) (assay: Human adenosine A2A receptor [3H]-SCH-58261 binding assay). Details: not given.
T1 construct: expressed in transfected cells; host or cells: CHO cells, semliki forest virus expression system; membrane preparation
T1 sequence (P29274 whole entry): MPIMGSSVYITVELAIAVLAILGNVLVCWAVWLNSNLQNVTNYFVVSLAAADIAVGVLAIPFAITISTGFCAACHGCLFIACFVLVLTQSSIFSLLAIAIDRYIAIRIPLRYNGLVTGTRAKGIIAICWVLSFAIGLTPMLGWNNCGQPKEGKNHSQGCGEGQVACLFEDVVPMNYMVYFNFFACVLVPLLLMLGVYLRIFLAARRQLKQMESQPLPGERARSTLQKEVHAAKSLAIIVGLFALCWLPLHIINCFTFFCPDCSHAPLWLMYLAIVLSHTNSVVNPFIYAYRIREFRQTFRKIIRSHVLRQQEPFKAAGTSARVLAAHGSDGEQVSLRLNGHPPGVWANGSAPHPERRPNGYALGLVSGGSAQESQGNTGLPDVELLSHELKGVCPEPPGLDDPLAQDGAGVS
Procedure: The gene encoding human adenosine A2A receptor was recombinantly introduced and expressed in chinese hamster ovary (CHO) cells using the semliki forest virus expression system. Cells were harvested, washed twice by centrifugation, homogenised and again washed by centrifugation. The final washed membrane pellet was suspended in a Tris (50 mM) buffer containing 120 mM NaCl, 5 mM KCl, 2 mM CaCl2 and 10 mM MgCl2 (pH 7.4) (buffer A). The [^3H]-SCH-58261 (Dionisotti et al., 1997, Br. J. Pharmacol. 121, 353; 1 nM) binding assay was carried out in 96-well plates in the presence of 2.5 μg of membrane protein, 0.5 mg of Ysi-poly-1-lysine SPA beads and 0.1 U adenosine deaminase in a final volume of 200 μl of buffer A. Non-specific binding was defined using xanthine amine congener (XAC; […]). Compounds were tested at 10 concentrations from 10 μM-0.3 nM. All assays were conducted in duplicate and repeated at least two times. Assay plates were incubated for 1 hour at room temperature before centrifugation and then bound ligand determined using a Packard Topcount scintillation counter. IC50 values were calculated using a non-linear curve fitting program and Ki values calculated using the Cheng-Prussoff equation.
Work on `N#Cc1c(-c2ccccc2)nc(N)nc1-c1ccco1` [Example 148, 2-Amino-4-furan-2-yl-6-phenyl-pyrimidine-5-carbonitrile] yielded a pKi of 8.19.

Same assay, conditions: human A2a receptor, membranes of CHO cells, [3H]-SCH-58261; read-out: pKi (affinity to the human A2a receptor) (converted)
`N#Cc1c(NCC2CCc3ccccc3N2)nc(N)nc1-c1ccco1` (racemic) [Example 299, (RS)-2-Amino-4-furan-2-yl-6-[(1,2,3,4-tetrahydro-quinolin-2-ylmethyl)-amino]-pyrimidine-5-carbonitrile] showed a Ki of 6.31 nM. Work on `CSc1nc(N)nc(-c2ccc3c(c2)OCCO3)c1C#N` [Example 23, 2-Amino-4-(2,3-dihydro-benzo[1,4]dioxin-6-yl)-6-methylsulfanyl-pyrimidine-5-carbonitrile] yielded a Ki of 9.12 nM. `N#Cc1c(-c2ccco2)nc(N)nc1N1CCCCC1` [Example 41, 2-Amino-4-furan-2-yl-6-piperidin-1-yl-pyrimidine-5-carbonitrile] showed a Ki of 8.51 nM. `N#Cc1c(NCCCc2ccccc2)nc(N)nc1-c1ccco1` [Example 44, 2-Amino-4-furan-2-yl-6-(3-phenyl-propylamino)-pyrimidine-5-carbonitrile] was tested, and the Ki was 2.51 nM. In the case of `N#Cc1c(OCc2ccccc2)nc(N)nc1-c1ccco1` [Example 47, 2-Amino-4-benzyloxy-6-furan-2-yl-pyrimidine-5-carbonitrile], the Ki was 3.8 nM. `N#Cc1c(SCc2ccccc2)nc(N)nc1-c1ccco1` [Example 52, 2-Amino-4-benzylsulfanyl-6-furan-2-yl-pyrimidine-5-carbonitrile] showed a Ki of 3.98 nM. Compound `N#Cc1c(OCCc2ccccc2)nc(N)nc1-c1ccco1` [Example 53, 2-Amino-4-furan-2-yl-6-phenethyloxy-pyrimidine-5-carbonitrile] has a Ki of 6.31 nM. In the case of `N#Cc1c(OCCCc2ccccc2)nc(N)nc1-c1ccco1` [Example 54, 2-Amino-4-furan-2-yl-6-(3-phenyl-propoxy)-pyrimidine-5-carbonitrile], the Ki was 7.41 nM. Work on `N#Cc1c(OC2CCCCC2)nc(N)nc1-c1ccco1` [Example 55, 2-Amino-4-cyclohexyloxy-6-furan-2-yl-pyrimidine-5-carbonitrile] yielded a Ki of 7.41 nM. Compound `N#Cc1c(NCCc2ccc(O)cc2)nc(N)nc1-c1ccco1` [Example 58, 2-Amino-4-furan-2-yl-6-[2-(4-hydroxy-phenyl)-ethylamino]-pyrimidine-5-carbonitrile] has a Ki of 6.46 nM. `CCCCSc1nc(N)nc(-c2ccco2)c1C#N` [Example 60, 2-Amino-4-butylsulfanyl-6-furan-2-yl-pyrimidine-5-carbonitrile] gave a Ki of 4.57 nM. In the case of `CC(C)Oc1nc(N)nc(-c2ccco2)c1C#N` [Example 61, 2-Amino-4-furan-2-yl-6-isopropoxy-pyrimidine-5-carbonitrile], the Ki was 6.92 nM. In the case of `N#Cc1c(OCc2ccccn2)nc(N)nc1-c1ccco1` [Example 76, 2-Amino-4-furan-2-yl-6-(pyridin-2-ylmethoxy)-pyrimidine-5-carbonitrile], the Ki was 2.09 nM. Compound `N#Cc1c(SCCCc2ccccc2)nc(N)nc1-c1ccccc1` [Example 85, 2-Amino-4-phenyl-6-(3-phenyl-propylsulfanyl)-pyrimidine-5-carbonitrile] has a Ki of 7.94 nM. In the case of `N#Cc1nc(N)nc(-c2ccco2)c1C#N` [Example 94, 2-Amino-6-furan-2-yl-pyrimidine-4,5-dicarbonitrile], the Ki was 9.77 nM. For `N#Cc1c(OCCc2ccccc2)nc(N)nc1-c1ccccc1` [Example 104, 2-Amino-4-phenethyloxy-6-phenyl-pyrimidine-5-carbonitrile], the Ki was 3.98 nM. In the case of `N#Cc1c(OCc2ccccn2)nc(N)nc1-c1ccccc1` [Example 105, 2-Amino-4-phenyl-6-(pyridin-2-ylmethoxy)-pyrimidine-5-carbonitrile], the Ki was 7.41 nM. With `COc1ccc(CCNc2nc(N)nc(-c3ccco3)c2C#N)cc1` [Example 144, 2-Amino-4-furan-2-yl-6-[2-(4-methoxy-phenyl)-ethylamino]-pyrimidine-5-carbonitrile] the Ki was 2.82 nM. In the case of `Nc1nc(OCc2ccccn2)c(Br)c(-c2ccco2)n1` [Example 168, 5-Bromo-4-furan-2-yl-6-(pyridin-2-ylmethoxy)-pyrimidin-2-yl-amine], the Ki was 9.33 nM. Work on `N#Cc1c(OCc2ccccn2)nc(N)nc1-c1cccs1` [Example 206, 2-Amino-4-(pyridin-2-ylmethoxy)-6-thiophen-2-yl-pyrimidine-5-carbonitrile] yielded a Ki of 9.55 nM. In the case of `Nc1nc(NCCCc2ccccc2)c(Br)c(-c2ccco2)n1` [Example 208, 5-Bromo-6-furan-2-yl-N4-(3-phenyl-propyl)-pyrimidine-2,4-diamine hydrochloride], the Ki was 9.12 nM. In the case of `N#Cc1c(OCc2cccnc2)nc(N)nc1-c1ccco1` [Example 219, 2-Amino-4-furan-2-yl-6-(pyridin-3-ylmethoxy)-pyrimidine-5-carbonitrile], the Ki was 5.89 nM. `Nc1nc(OCCCc2ccccc2)c(Br)c(-c2ccco2)n1` [Example 230, 5-Bromo-4-furan-2-yl-6-(3-phenyl-propoxy)-pyrimidin-2-yl-amine] was tested, and the Ki was 1.66 nM. Work on `N#Cc1c(OCCNc2ccccc2)nc(N)nc1-c1ccco1` [Example 231, 2-Amino-4-furan-2-yl-6-(2-1-phenylamino-ethoxy)-pyrimidine-5-carbonitrile] yielded a Ki of 8.13 nM. `N#Cc1c(SCCc2ccccc2)nc(N)nc1-c1ccco1` [Example 233, 2-Amino-4-furan-2-yl-6-phenethylsulfanyl-pyrimidine-5-carbonitrile] gave a Ki of 2.75 nM. `N#Cc1c(SCCCc2ccccc2)nc(N)nc1-c1ccco1` [Example 234, 2-Amino-4-furan-2-yl-6-(3-phenyl-propylsulfanl)-pyrimidine-5-carbonitrile] was tested, and the Ki was 5.5 nM. With `N#Cc1c(NCCOc2ccccc2)nc(N)nc1-c1ccco1` [Example 235, 2-Amino-4-furan-2-yl-6-(2-phenoxy-ethylamino)-pyrimidine-5-carbonitrile] the Ki was 3.47 nM. `Cc1cccc(COc2nc(N)nc(-c3ccco3)c2C#N)n1` [Example 237, 2-Amino-4-furan-2-yl-6-(6-methyl-pyridin-2-ylmethoxy)-pyrimidine-5-carbonitrile] showed a Ki of 2.95 nM. In the case of `N#Cc1c(OCCc2ccccn2)nc(N)nc1-c1ccco1` [Example 241, 2-Amino-4-furan-2-yl-6-(2-pyridin-2-yl-ethoxy)-pyrimidine-5-carbonitrile], the Ki was 2.19 nM. With `Cc1ccc(-c2nc(N)nc(NCc3ccccc3)c2C#N)o1` [Example 245, 2-Amino-4-benzylamino-6-(5-methyl-furan-2-yl)-pyrimidine-5-carbonitrile] the Ki was 5.5 nM. For `Cc1cccc(COc2nc(N)nc(-c3ccc(C)o3)c2C#N)n1` [Example 246, 2-Amino-4-(5-methyl-furan-2-yl)-6-(6-methyl-pyridin-2-ylmethoxy)-pyrimidine-5-carbonitrile], the Ki was 1.86 nM. In the case of `Cc1ccc(-c2nc(N)nc(OCc3ccccn3)c2C#N)o1` [Example 247, 2-Amino-4-(5-methyl-furan-2-yl)-6-(pyridin-2-ylmethoxy)-pyrimidine-5-carbonitrile], the Ki was 2.14 nM. `Nc1nc(OCCCc2ccccc2)c(I)c(-c2ccco2)n1` [Example 267, 4-Furan-2-yl-5-iodo-6-(3-phenyl-propoxy)-pyrimidin-2-yl-amine] gave a Ki of 4.37 nM. `Nc1nc(SCCc2ccccc2)c(Br)c(-c2ccco2)n1` [Example 269, 5-Bromo-4-furan-2-yl-6-phenethylsulfanyl-pyrimidin-2-yl-amine] was tested, and the Ki was 7.76 nM. With `N#Cc1c(OCC=Cc2ccccc2)nc(N)nc1-c1ccco1` [Example 278, 2-Amino-4-furan-2-yl-6-(3-phenyl-allyloxy)-pyrimidine-5-carbonitrile] the Ki was 3.72 nM.
